# Laboratory results reported in patent publication US20220022457A1, “Microbicide Ammonium-Imidazolium Oligomers and Their Anti-Fungal Compositions” (AGENCY FOR SCIENCE, TECHNOLOGY AND RESEARCH, priority 2018, published 2022).
# Columns and labels:
# [1] = test system: C. albicans; assay type: cell-based, Candida albicans
# [2] = test system: C. albicans; assay: Checkerboard assay of oligomers with triazoles (FIC); assay type: cell-based; conditions: Candida albicans
# Protocol: […]. […] A row and a column in which a serial dilution of each agent was present alone were also prepared for MIC test. Then each solution in the well plate was inoculated with 100 μL of logarithmically grown 10^6 cells/ml C. albicans cells in the 96-well plate. The plate also contained a column with C. albicans only as control (100% cell growth). The cells were incubated at room temperature for 24 h with constant shaking, after which cell growth (i.e. the O.D. at 600 nm) was monitored with a microplate reader (TECAN) Synergy between fluconazole and oligomers was determined by calculating the fractional inhibitory concentration index ([…] was calculated as follows: FIC=(MIColigomer A in combination/MIColigomer A alone)+(MICazole B in combination/MICazole B alone). […] The interaction of selected oligomers with other triazoles such as itraconazole and voriconazole was also investigated using the checkerboard dilution method. For comparison, the interaction of the selected oligomer with a non-triazole antifungal agent […] was also investigated.
# [3] = test system: Candida albicans (ATCC 10231, fungus); assay: Minimum inhibitory concentration, microdilution assay; assay type: cell-based
# Protocol: Staphylococcus aureus (ATCC 6538, Gram-positive), Escherichia coli (ATCC 8739, Gram-negative), Pseudomonas aeruginosa (ATCC 9027, Gram-negative), and Candida albicans (ATCC 10231, fungus) were used as representative microorganisms to challenge the antimicrobial functions of the oligomers. All bacteria and fungus were frozen at -80° C., and were grown overnight at 37° C. in Mueller Hinton Broth (MHB, BD Singapore) prior to experiments. Fungus was grown overnight at 22° C. in Yeast Mold Broth (YMB, BD Singapore). […] […] […] Medium solution containing microbial cells alone were used as control (100% microbial growth). The assay was performed in four replicates and the experiments were repeated at least two times.
# [4] = test system: Candida albicans; assay: Killing efficacy of selected oligomers at 62 μg/ml (FIG. 1); assay type: cell-based
# [5] = Critical micelle concentration; assay type: physicochemical
# [6] = test system: Staphylococcus aureus (ATCC 6538, Gram-positive); assay: Minimum inhibitory concentration, microdilution assay; assay type: cell-based; conditions: 24 h, lowest concentration with no visible growth
# Protocol: (§1) Staphylococcus aureus (ATCC 6538, Gram-positive), Escherichia coli (ATCC 8739, Gram-negative), Pseudomonas aeruginosa (ATCC 9027, Gram-negative), and Candida albicans (ATCC 10231, fungus) were used as representative microorganisms to challenge the antimicrobial functions of the oligomers. All bacteria and fungus were frozen at -80° C., and were grown overnight at 37° C. in Mueller Hinton Broth (MHB, BD Singapore) prior to experiments. Fungus was grown overnight at 22° C. in Yeast Mold Broth (YMB, BD Singapore). […] The plates were incubated at 37° C. for 24 h with constant shaking speed at 300 rpm. […] Medium solution containing microbial cells alone were used as control (100% microbial growth). The assay was performed in four replicates and the experiments were repeated at least two times.
# [7] = test system: Escherichia coli (ATCC 8739, Gram-negative); assay: as above; assay type: cell-based; conditions: 24 h, lowest concentration with no visible growth
# Protocol: as §1
# [8] = test system: Pseudomonas aeruginosa (ATCC 9027, Gram-negative); assay: as above; assay type: cell-based; conditions: 24 h, lowest concentration with no visible growth
# Protocol: as §1
# [9] = test system: mouse red blood cells (RBCs); assay: Hemolysis study; assay type: cell-based; conditions: oligomer concentration giving 10% hemolysis, 1 h, 37° C.
# Protocol: After 1 h incubation at 37° C., the mixture was centrifuged at 2000 rpm for 5 min. Aliquots (100 μl) of the supernatant were transferred to a 96-well plate. Hemolytic activity was determined as a function of hemoglobin release by measuring absorbance of the supernatant at 576 nm using a microplate reader. A control solution that contained only PBS was used as a reference for 0% hemolysis. Absorbance of red blood cells lysed with 0.5% Triton-X was taken as 100% hemolysis. The oligomer concentration which results in 10% hemolysis is indicated as HC10 in Table 1. The data were expressed as mean and S.D. of four replicates. % Hemolysis=[OD576 nm (polymer)−OD576 nm (PBS)]/[OD576 nm (Triton-X)−OD576 nm (PBS)]×100%
# [10] = test system: Staphylococcus aureus; assay: Percentage growth after 24 hours with norfloxacin, IDPBX8 and 1:1 mixture (FIG. 2a); assay type: cell-based; conditions: IDPBX8 combined with norfloxacin, 1:1 weight ratio
# [11] = test system: C. albicans; assay: Growth of C. albicans with IDPBX8, fluconazole or combination (OD600, colony counting; FIG. 2b, 2c)
smiles,measurement,setting,value
"OC(Cn1cncn1)(Cn1cncn1)c1ccc(F)cc1F [Fluconazole, fluconazole, reference compound]",MIC increase by the 31th passage,"[1]; grown at 1/4 MIC, 31th passage",8 times of the original MIC
same,MIC50,"[2]; triazole alone, read-out: Alone MIC50 component B",4 µg/mL
same,Alone MIC50 component B,[2]; triazole alone,2 µg/mL
same,Combined MIC50 component B,[2]; triazole in combination with IDPBX8,0.5 µg/mL
same,Combined MIC50 component B,[2]; triazole in combination with IDPPX8,0.25 µg/mL
same,Combined MIC50 component B,[2]; triazole in combination with IIDPPBX8,2 µg/mL
same,MIC,"[3]; ATCC10231, Candida albicans ~10^6 CFU/ml, YMB, room temperature, no visible growth",2 to 4 µg/mL
same,Number of surviving C. albicans after 24 h treatment compared with control,"[4]; 62 μg/ml, 24 h",significantly less than the untreated control
same,Fungistatic or fungicidal,"[4]; 62 μg/ml, survivors at 24 h compared with 0 h",fungistatic rather than fungicidal
CCCCCCCC[n+]1ccn(Cc2ccc(C[N+]34CC[N+](C/C=C/C[N+]56CC[N+](Cc7ccc(Cn8cc[n+](CCCCCCCC)c8)cc7)(CC5)CC6)(CC3)CC4)cc2)c1.[Br-].[Br-].[Br-].[Br-].[Br-].[Br-] [IDPBX8],Resistance developed by C. albicans,[1]; 36 consecutive days of treatment,no significant resistance was developed
same,MICs over the entire 36 passages,[1]; grown at 1/4 MIC,relatively stable
same,CMC,[5],1456 µg/mL
same,MIC S.A.,[6],16 µg/mL
same,MIC E.C.,[7],31 µg/mL
same,MIC P.A.,[8],62 µg/mL
same,Interaction when applied together with voriconazole,[2],Synergy
same,FIC with Fluconazole,[2]; calculated from lowest concentration inhibiting at least 50% growth,0.38
same,Alone MIC50 component A,[2]; oligomer alone,8 µg/mL
same,Combined MIC50 component A,[2]; oligomer in combination with Fluconazole,1 µg/mL
same,Combined MIC50 component A,[2]; oligomer in combination with Itraconazole,1 µg/mL
same,Combined MIC50 component A,[2]; oligomer in combination with Voriconazole,2 µg/mL
same,FIC,[2]; oligomer with Fluconazole (Table 2),0.38
same,FIC,[2]; oligomer with Itraconazole,0.62
same,FIC,[2]; oligomer with Voriconazole,0.31
same,HC10,[9],>2000 µg/mL
same,Efficacy of combination versus single agents,[10],did not show improved efficacy
same,MIC C.A.,"[3]; Candida albicans ~10^6 CFU/ml, YMB, room temperature, no visible growth",8 to 31 µg/mL
same,MIC50 C.A. (value in brackets),"[3]; Candida albicans, concentration inhibiting 50% fungal growth",(2-8) μg/ml
same,Killing,"[4]; 62 μg/ml, after 24 h treatment",99%
same,Killing,"[4]; 62 μg/ml, after 48 h",99.99%
same,Killing kinetics,[4]; IDPBX8 compared with IIDPPBX8,kills faster
same,Total concentration of the combination at which killing effect was observed,[11],2 µg/mL
same,Activity of combination versus single agents,"[11]; IDPBX8 combined with fluconazole, 1:1 weight ratio, 24 h",higher activity than each compound/medicine used alone
